# In patent US8008456B2, “Compositions containing, methods involving, and uses of non-natural amino acids and polypeptides” (Ambrx, Inc., priority 2004, dated 2011):
# Test: pH stability tests
# Assay type: physicochemical
# Experimental: This example provides the results of pH stability tests that were conducted on certain illustrative non-natural amino acids as an aid for predicting their properties for incorporation into non-natural amino acid polypeptides.
compound,measurement,setting,value
COCCOC(=O)NCCO/N=C(\C)C(=O)Nc1ccccc1 [drawing 134],pH stability,"pH 4.0, 1 hour",<1%
same,pH stability,"pH 4.0, 1 day",<1%
same,pH stability,"pH 4.0, 2 days",<1%
same,pH stability,"pH 4.0, 3 days",<1%
same,pH stability,"pH 4.0, 4 days",<1%
same,pH stability,"pH 4.0, 5 days",<1%
same,pH stability,"pH 4.0, 6 days",<1%
same,pH stability,"pH 4.0, 7 days",<1%
same,pH stability,"pH 4.0, 10 days",<1%
same,pH stability,"pH 5.0, 1 hour",<1%
same,pH stability,"pH 5.0, 1 day",<1%
same,pH stability,"pH 5.0, 2 days",<1%
same,pH stability,"pH 5.0, 3 days",<1%
same,pH stability,"pH 5.0, 4 days",<1%
same,pH stability,"pH 5.0, 5 days",<1%
same,pH stability,"pH 5.0, 6 days",<1%
same,pH stability,"pH 5.0, 7 days",<1%
same,pH stability,"pH 5.0, 10 days",<1%
same,pH stability,"pH 6.5, 1 hour",<1%
same,pH stability,"pH 6.5, 1 day",<1%
same,pH stability,"pH 6.5, 2 days",<1%
same,pH stability,"pH 6.5, 3 days",<1%
same,pH stability,"pH 6.5, 4 days",<1%
same,pH stability,"pH 6.5, 5 days",<1%
same,pH stability,"pH 6.5, 6 days",<1%
same,pH stability,"pH 6.5, 7 days",<1%
same,pH stability,"pH 6.5, 10 days",<1%
same,pH stability,"pH 7.4, 1 hour",<1%
same,pH stability,"pH 7.4, 1 day",<1%
same,pH stability,"pH 7.4, 2 days",<1%
same,pH stability,"pH 7.4, 3 days",<1%
same,pH stability,"pH 7.4, 4 days",<1%
same,pH stability,"pH 7.4, 5 days",<1%
same,pH stability,"pH 7.4, 6 days",<1%
same,pH stability,"pH 7.4, 7 days",<1%
same,pH stability,"pH 7.4, 10 days",<1%
same,pH stability,"pH 8.0, 1 hour",<1%
same,pH stability,"pH 8.0, 1 day",<1%
same,pH stability,"pH 8.0, 2 days",<1%
same,pH stability,"pH 8.0, 3 days",<1%
same,pH stability,"pH 8.0, 4 days",<1%
same,pH stability,"pH 8.0, 5 days",<1%
same,pH stability,"pH 8.0, 6 days",<1%
same,pH stability,"pH 8.0, 7 days",<1%
same,pH stability,"pH 8.0, 10 days",<1%
COCCOCNCCO/N=C(\C)CC(=O)c1ccccc1 [drawing 135],pH stability,"pH 4.0, 1 hour",<1%
same,pH stability,"pH 4.0, 1 day",<1%
same,pH stability,"pH 4.0, 2 days",<1%
same,pH stability,"pH 4.0, 3 days",<1%
same,pH stability,"pH 4.0, 4 days",<1%
same,pH stability,"pH 4.0, 5 days",<1%
same,pH stability,"pH 4.0, 6 days",2%
same,pH stability,"pH 4.0, 7 days",2%
same,pH stability,"pH 4.0, 10 days",3%
same,pH stability,"pH 5.0, 1 hour",<1%
same,pH stability,"pH 5.0, 1 day",<1%
same,pH stability,"pH 5.0, 2 days",<1%
same,pH stability,"pH 5.0, 3 days",<1%
same,pH stability,"pH 5.0, 4 days",<1%
same,pH stability,"pH 5.0, 5 days",<1%
same,pH stability,"pH 5.0, 6 days",<1%
same,pH stability,"pH 5.0, 7 days",<1%
same,pH stability,"pH 5.0, 10 days",<1%
same,pH stability,"pH 6.5, 1 hour",<1%
same,pH stability,"pH 6.5, 1 day",<1%
same,pH stability,"pH 6.5, 2 days",<1%
same,pH stability,"pH 6.5, 3 days",<1%
same,pH stability,"pH 6.5, 4 days",<1%
same,pH stability,"pH 6.5, 5 days",<1%
same,pH stability,"pH 6.5, 6 days",<1%
same,pH stability,"pH 6.5, 7 days",<1%
same,pH stability,"pH 6.5, 10 days",<1%
same,pH stability,"pH 7.4, 1 hour",<1%
same,pH stability,"pH 7.4, 1 day",<1%
same,pH stability,"pH 7.4, 2 days",<1%
same,pH stability,"pH 7.4, 3 days",<1%
same,pH stability,"pH 7.4, 4 days",<1%
same,pH stability,"pH 7.4, 5 days",3%
same,pH stability,"pH 7.4, 6 days",4%
same,pH stability,"pH 7.4, 7 days",7%
same,pH stability,"pH 7.4, 10 days",11%
same,pH stability,"pH 8.0, 1 hour",<1%
same,pH stability,"pH 8.0, 1 day",<1%
same,pH stability,"pH 8.0, 2 days",<1%
same,pH stability,"pH 8.0, 3 days",<1%
same,pH stability,"pH 8.0, 4 days",<1%
same,pH stability,"pH 8.0, 5 days",<1%
same,pH stability,"pH 8.0, 6 days",<1%
same,pH stability,"pH 8.0, 7 days",<1%
same,pH stability,"pH 8.0, 10 days",<1%
COCCOC(=O)NCCO/N=C(\C)C(=O)Nc1ccccc1 [drawing 138],pH stability,"pH 4.0, 1 hour",4.0%
same,pH stability,"pH 4.0, 1 day",<1%
same,pH stability,"pH 4.0, 2 days",<1%
same,pH stability,"pH 4.0, 3 days",<1%
same,pH stability,"pH 4.0, 4 days",<1%
same,pH stability,"pH 4.0, 5 days",<1%
same,pH stability,"pH 4.0, 6 days",<1%
same,pH stability,"pH 4.0, 7 days",<1%
same,pH stability,"pH 4.0, 10 days",<1%
same,pH stability,"pH 5.0, 1 hour",5.0%
same,pH stability,"pH 5.0, 1 day",<1%
same,pH stability,"pH 5.0, 2 days",<1%
same,pH stability,"pH 5.0, 3 days",<1%
same,pH stability,"pH 5.0, 4 days",<1%
same,pH stability,"pH 5.0, 5 days",<1%
same,pH stability,"pH 5.0, 6 days",<1%
same,pH stability,"pH 5.0, 7 days",<1%
same,pH stability,"pH 5.0, 10 days",<1%
same,pH stability,"pH 6.5, 1 hour",6.5%
same,pH stability,"pH 6.5, 1 day",<1%
same,pH stability,"pH 6.5, 2 days",<1%
same,pH stability,"pH 6.5, 3 days",<1%
same,pH stability,"pH 6.5, 4 days",<1%
same,pH stability,"pH 6.5, 5 days",<1%
same,pH stability,"pH 6.5, 6 days",<1%
same,pH stability,"pH 6.5, 7 days",<1%
same,pH stability,"pH 6.5, 10 days",<1%
same,pH stability,"pH 7.4, 1 hour",7.4%
same,pH stability,"pH 7.4, 1 day",<1%
same,pH stability,"pH 7.4, 2 days",<1%
same,pH stability,"pH 7.4, 3 days",<1%
same,pH stability,"pH 7.4, 4 days",<1%
same,pH stability,"pH 7.4, 5 days",<1%
same,pH stability,"pH 7.4, 6 days",<1%
same,pH stability,"pH 7.4, 7 days",<1%
same,pH stability,"pH 7.4, 10 days",<1%
same,pH stability,"pH 8.0, 1 hour",8.0%
same,pH stability,"pH 8.0, 1 day",<1%
same,pH stability,"pH 8.0, 2 days",<1%
same,pH stability,"pH 8.0, 3 days",<1%
same,pH stability,"pH 8.0, 4 days",<1%
same,pH stability,"pH 8.0, 5 days",<1%
same,pH stability,"pH 8.0, 6 days",<1%
same,pH stability,"pH 8.0, 7 days",<1%
same,pH stability,"pH 8.0, 10 days",<1%
COCCOCNCCO/N=C(\C)CC(=O)c1ccccc1 [drawing 139],pH stability,"pH 4.0, 1 hour",4.0%
same,pH stability,"pH 4.0, 1 day",<1%
same,pH stability,"pH 4.0, 2 days",<1%
same,pH stability,"pH 4.0, 3 days",<1%
same,pH stability,"pH 4.0, 4 days",<1%
same,pH stability,"pH 4.0, 5 days",<1%
same,pH stability,"pH 4.0, 6 days",<1%
same,pH stability,"pH 4.0, 7 days",<1%
same,pH stability,"pH 4.0, 10 days",<1%
same,pH stability,"pH 5.0, 1 hour",5.0%
same,pH stability,"pH 5.0, 1 day",<1%
same,pH stability,"pH 5.0, 2 days",<1%
same,pH stability,"pH 5.0, 3 days",<1%
same,pH stability,"pH 5.0, 4 days",<1%
same,pH stability,"pH 5.0, 5 days",<1%
same,pH stability,"pH 5.0, 6 days",<1%
same,pH stability,"pH 5.0, 7 days",<1%
same,pH stability,"pH 5.0, 10 days",<1%
same,pH stability,"pH 6.5, 1 hour",6.5%
same,pH stability,"pH 6.5, 1 day",<1%
same,pH stability,"pH 6.5, 2 days",<1%
same,pH stability,"pH 6.5, 3 days",<1%
same,pH stability,"pH 6.5, 4 days",<1%
same,pH stability,"pH 6.5, 5 days",<1%
same,pH stability,"pH 6.5, 6 days",<1%
same,pH stability,"pH 6.5, 7 days",<1%
same,pH stability,"pH 6.5, 10 days",<1%
same,pH stability,"pH 7.4, 1 hour",7.4%
same,pH stability,"pH 7.4, 1 day",<1%
same,pH stability,"pH 7.4, 2 days",<1%
same,pH stability,"pH 7.4, 3 days",<1%
same,pH stability,"pH 7.4, 4 days",<1%
same,pH stability,"pH 7.4, 5 days",<1%
same,pH stability,"pH 7.4, 6 days",<1%
same,pH stability,"pH 7.4, 7 days",<1%
same,pH stability,"pH 7.4, 10 days",<1%
same,pH stability,"pH 8.0, 1 hour",8.0%
same,pH stability,"pH 8.0, 1 day",<1%
same,pH stability,"pH 8.0, 2 days",<1%
same,pH stability,"pH 8.0, 3 days",<1%
same,pH stability,"pH 8.0, 4 days",<1%
same,pH stability,"pH 8.0, 5 days",<1%
same,pH stability,"pH 8.0, 6 days",<1%
same,pH stability,"pH 8.0, 7 days",<1%
same,pH stability,"pH 8.0, 10 days",<1%
